This experiment has as its system T1, Kv2.2.
T1 construct: gene KCNB2
As to the kind of experiment: channel inhibition in CHO cells transfected with pcDNA3.1a-Kv2.[…] (Supplementary Figure […]). In kind it is cell-based.

Take `CCOC(=O)C1=C(C)N=c2sc(=Cc3ccc(O)c(OC)c3)c(=O)n2C1c1ccc(OC)c(OCC)c1` (stereo not shown) [SP6616, ethyl 5-(3-ethoxy-4-methoxyphenyl)-2-(4-hydroxy-3-methoxybenzylidene)-7-methyl-3-oxo-2,3-dihydro-5H-[1,3]thiazolo[3,2–a]pyrimidine-6-carboxylate]: the half-inhibitory concentration (IC50) – broadly, the concentration at which inhibition is half-maximal – was determined as 13.5 µM.

The values are drawn from article PMC4917657, “SP6616 as a new Kv2.1 channel inhibitor efficiently promotes β-cell survival involving both PKC/Erk1/2 and CaM/PI3K/Akt signaling pathways” (Cell Death & Disease, 2016).
